Where two headings read alike, the source gives them in different places.
Columns and labels:
[1] = target: T1, BACE1 (human recombinant β-secretase) (Homo sapiens, UniProt P56817); test: In vitro BACE1 FRET enzyme assay; format: biochemical
Excerpt: (§1) BACE1 (human recombinant β-secretase) ([…]) and the BACE1 FRET (fluorescence resonance energy transfer) assay kit Red were purchased from ThermoFisher Scientific (P2985; Waltham, MA, USA). […] For the cell culture experiment, Dulbecco’s modified Eagle’s medium (DMEM), Opti-MEM, fetal bovine serum (FBS), and penicillin/streptomycin were obtained from Capricorn Scientific (Ebsdorfergrund, Germany). β-secretase inhibitor III (β-SI) was purchased from Calbiochem (Darmstadt, Germany). The protease inhibitor mixture (a mixture of AEBSF, pepstatin A, E-64, bestain, leupeptin, and aprotinin) was purchased from Sigma-Aldrich (St. Louis, MO, USA). Enzyme-linked immunosorbent assay (ELISA) kits for Aβ40 and Aβ42 were obtained from IBL (Kunma, Japan). All chemicals and solvents used were reagent grade, purchased from commercial sources, and used as received.
The BACE1 FRET assay was carried out according to the manufacturer’s instructions with slight modifications as previously described. The assay was performed in a […] black plate using a multi-pipette.

[2] = target: T2, Electric eel AChE (Electrophorus electricus, UniProt O42275); test: In vitro cholinesterase enzyme assay (Ellman), AChE; format: biochemical
T2 construct: purchased Sigma-Aldrich Co
Excerpt: as §1
(§2) The inhibitory activities of pterosin derivatives against cholinesterases were measured using the method developed by Ellman et al.[32]. The reaction mixture contained 140 μL of sodium phosphate buffer (pH 8.0), 20 μL of test sample solution (final concentration of the compound 100 μM), and 20 μL of AChE or BChE solution, mixed and incubated for 15 min at room temperature. […] The reactions were initiated following the addition of 10 μL of DTNB and 10 μL of acetyl thiocholine iodide for the AChE assay or butyryl thiocholine chloride for the BChE assay in 96-well microplates, which were incubated for 15 min.

[3] = target: T3, horse serum BChE (Equus caballus, UniProt P81908); test: In vitro cholinesterase enzyme assay (Ellman), BChE; format: biochemical
T3 construct: horse serum BChE (EC 3.1.1.8); purchased Sigma-Aldrich Co; host or cells: horse serum
Excerpt: as §1, §2

[4] = in vitro; format: in vitro ADME; details: for Papp at 4 h, 25 µg/mL: pig, PAMPA, read-out: PAMPA-BBB permeability Pe
Experimental: PAMPA (parallel artificial membrane permeation assay) was used as a high-throughput assay to predict BBB permeation. Porcine polar brain lipid (PBL) was used as an artificial membrane to predict BBB permeation. Initially, the test compound was dissolved in DMSO at 5 mg/mL. This compound stock solution (10 µL) was diluted 200-fold in a universal buffer at pH 7.4 and mixed with a multi 8-channel pipette to obtain the secondary stock solution (final concentration 25 µg/mL). The secondary stock solution (200 µL) was placed in the donor wells. The filter membrane was coated with PBL in dodecane (4 mL volume of 20 mg/mL PBL in dodecane), and 5 µL of BBB-1 lipid solution was spread on PBL by pipette. The acceptor well was filled with […] of Acceptor Sink Buffer. The acceptor filter plate was cautiously positioned on the donor plate to assemble a “sandwich” (comprising an aqueous acceptor, artificial lipid membrane and aqueous donor with test compound on the top, middle and bottom, respectively). The test compound diffuses from the donor well to the acceptor well through the lipid membrane. After 4 h of incubation at pH 7.4 and 25 °C, the concentration of the compound in the acceptor, donor, reference and blank wells was estimated with a UV plate reader, Epoch Microplate Spectrophotometer (BioTek Instruments, Inc., Winooski, VT, USA). […] Samples were analyzed in quadruplets, and the average of the four runs was reported. To monitor the consistency of the analysis set, quality control standards were run with each sample set.
PAMPA-BBB, an in vitro artificial membrane permeability assay for the BBB, is one of the most reliable physicochemical screening tools in the early stage discovery of CNS-targeted drugs. The PAMPA-BBB system models the transcellular passive diffusion of chemicals across the BBB and measures strictly passive transport mechanisms via an artificial lipid membrane on effective permeability (Pe, cm/s).

[5] = tested on: SH-SY5Y human neuroblastoma; test: MTT cytotoxicity assay, SH-SY5Y; format: cell-based; details: 24 h
Experimental: (§3) Cytotoxicity was assessed using the MTT assay. Briefly, the cells were seeded into a 96-well plate at a density of 1×10^5 cells per well in 100 µL of corresponding media and incubated at 37 °C in an incubator under 5% CO2 tension for 24 h. The culture media were then replaced with 100 µL of fresh serum-free media in the presence of varied concentrations of pterosin derivatives, and cells were incubated for an additional 24 h. The control was treated with an equal amount of DMSO present in the assay for a 5 mM concentration. Then, 100 µL of MTT solution (0.5 mg/mL in Phosphate Buffered Saline (PBS)) was added to each culture. To measure the proportion of surviving cells, the media were replaced with 100 µL of DMSO 2 h after the administration of MTT solution. The absorbance was measured at 570 nm using a spectrophotometric plate reader (Molecular Devices, Sunnyvale, CA, USA).

[6] = tested on: C6 rat glial cells; test: MTT cytotoxicity assay, C6; format: cell-based; details: 24 h
Experimental: as §3

[7] = tested on: NIH3T3 mouse embryo fibroblasts; test: MTT cytotoxicity assay, NIH3T3; format: cell-based; details: 24 h
Experimental: as §3

[8] = tested on: B16F10 mouse melanoma; test: MTT cytotoxicity assay, B16F10; format: cell-based; details: 24 h
Experimental: as §3

[9] = target: T1, BACE1 (human recombinant β-secretase); test: Kinetic analysis of BACE1 inhibition (Dixon and Lineweaver−Burk plots); format: biochemical
Experimental: (§4) The Ki was determined by interpretation of the Dixon plot, with the value of the x-axis intercept taken as −Ki.
Dixon plots for BACE1 inhibition by pterosin derivatives.
Dixon plots for BACE1 inhibition by pteroside derivatives.

[10] = target: T2, Electric eel AChE; test: Kinetic analysis of AChE inhibition (Dixon and Lineweaver−Burk plots); format: biochemical
Experimental: as §4
Dixon plots for AChE inhibition by pterosin derivatives. (2S,3R)-Pterosin C (A), (2R,3R)-pterosin C (B), and (2R)-pterosin B (C) were tested in the presence of substrate concentrations of 0.1 mM (●), 0.3 mM (○), and 0.6 mM (▼). Lineweaver-Burk plots for AChE inhibition were generated with inhibitor concentrations of 0 µM (Δ), 4 µM (▼), 20 µM (○), and 100 µM (●) for (2S,3R)-pterosin C (D) and (2R,3R)-pterosin C (E); and 0 µM (Δ), 2 µM (▼), 10 µM (○), and 50 µM (●) for (2R)-pterosin B (F).
Dixon plots for AChE inhibition by pteroside derivatives. (2R)-pteroside B (A), (2R,3R)-pteroside C (B), and (3S)-pteroside D (C) were tested in the presence of substrate concentrations of 0.1 mM (●), 0.3 mM (○), and 0.6 mM (▼). Lineweaver-Burk plots for AChE inhibition were generated with inhibitor concentrations of 0 µM (Δ), 0.8 µM (▼), 4 µM (○), and 20 µM (●) for (2R)-pteroside B (D), (2R,3R)-pteroside C (E), and (3S)-pteroside D (F).

[11] = target: T3, horse serum BChE; test: Kinetic analysis of BChE inhibition (Dixon and Lineweaver−Burk plots); format: biochemical
Experimental: as §4
Dixon plots for BChE inhibition by pterosin derivatives. (2S,3R)-Pterosin C (A), (2R,3R)-pterosin C (B), and (2R)-pterosin B (C) were tested in the presence of substrate concentrations of 0.2 mM (●), 0.4 mM (○), and 0.8 mM (▼).
Dixon plots for BChE inhibition by pteroside derivatives. (2R)-pteroside B (A), (2R,3R)-pteroside C (B), and (3S)-pteroside D (C) were tested in the presence of substrate concentrations of 0.2 mM (●), 0.4 mM (○), and 0.8 mM (▼). Lineweaver-Burk plots for BChE inhibition were generated with inhibitor concentrations of 0 µM (Δ), 4 µM (▼), 20 µM (○), and 100 µM (●) for (2R)-pteroside B (D); 0 µM (Δ), 0.8 µM (▼), 4 µM (○), and 20 µM (●) for (2R,3R)-pteroside C (E) and (3S)-pteroside D (F).

[12] = mean ± S.D. of three experiments
[13] = mean ± S.D. of three experiments, read-out: IC50 AChE
[14] = mean ± S.D. of three experiments, read-out: IC50 BChE
[15] = 4 h, pH 7.4, 25 °C, mean ± SD of quadruple experiments
[16] = Dixon and Lineweaver−Burk plots

T3 sequence (P81908 whole entry): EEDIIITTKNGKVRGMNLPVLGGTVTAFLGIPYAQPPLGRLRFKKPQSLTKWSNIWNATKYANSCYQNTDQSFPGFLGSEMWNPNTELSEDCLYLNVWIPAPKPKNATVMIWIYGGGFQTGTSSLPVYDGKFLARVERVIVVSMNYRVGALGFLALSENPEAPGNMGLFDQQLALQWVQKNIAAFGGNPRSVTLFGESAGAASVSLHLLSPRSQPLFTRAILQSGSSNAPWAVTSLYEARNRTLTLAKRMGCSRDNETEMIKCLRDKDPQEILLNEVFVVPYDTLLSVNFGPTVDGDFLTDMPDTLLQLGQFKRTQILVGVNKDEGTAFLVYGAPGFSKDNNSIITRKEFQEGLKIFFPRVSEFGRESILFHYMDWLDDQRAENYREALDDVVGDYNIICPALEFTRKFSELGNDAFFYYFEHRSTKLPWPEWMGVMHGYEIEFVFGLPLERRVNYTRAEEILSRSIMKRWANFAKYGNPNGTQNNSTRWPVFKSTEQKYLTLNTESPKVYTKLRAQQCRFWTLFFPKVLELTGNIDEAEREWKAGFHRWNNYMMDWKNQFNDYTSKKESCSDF
T1 sequence (P56817 46-501): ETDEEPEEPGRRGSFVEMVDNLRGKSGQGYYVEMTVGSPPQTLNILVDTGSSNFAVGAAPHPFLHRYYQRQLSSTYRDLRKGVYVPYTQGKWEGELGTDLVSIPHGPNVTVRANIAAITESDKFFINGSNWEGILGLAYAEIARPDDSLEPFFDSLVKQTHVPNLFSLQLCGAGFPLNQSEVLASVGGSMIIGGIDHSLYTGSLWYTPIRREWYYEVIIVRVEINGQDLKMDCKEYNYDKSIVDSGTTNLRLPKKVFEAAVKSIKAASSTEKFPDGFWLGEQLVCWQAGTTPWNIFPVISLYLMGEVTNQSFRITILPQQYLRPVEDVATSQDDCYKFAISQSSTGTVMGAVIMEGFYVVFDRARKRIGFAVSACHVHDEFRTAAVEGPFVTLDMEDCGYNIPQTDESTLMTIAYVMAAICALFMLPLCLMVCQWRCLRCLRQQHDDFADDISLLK
T2 sequence (O42275 24-633): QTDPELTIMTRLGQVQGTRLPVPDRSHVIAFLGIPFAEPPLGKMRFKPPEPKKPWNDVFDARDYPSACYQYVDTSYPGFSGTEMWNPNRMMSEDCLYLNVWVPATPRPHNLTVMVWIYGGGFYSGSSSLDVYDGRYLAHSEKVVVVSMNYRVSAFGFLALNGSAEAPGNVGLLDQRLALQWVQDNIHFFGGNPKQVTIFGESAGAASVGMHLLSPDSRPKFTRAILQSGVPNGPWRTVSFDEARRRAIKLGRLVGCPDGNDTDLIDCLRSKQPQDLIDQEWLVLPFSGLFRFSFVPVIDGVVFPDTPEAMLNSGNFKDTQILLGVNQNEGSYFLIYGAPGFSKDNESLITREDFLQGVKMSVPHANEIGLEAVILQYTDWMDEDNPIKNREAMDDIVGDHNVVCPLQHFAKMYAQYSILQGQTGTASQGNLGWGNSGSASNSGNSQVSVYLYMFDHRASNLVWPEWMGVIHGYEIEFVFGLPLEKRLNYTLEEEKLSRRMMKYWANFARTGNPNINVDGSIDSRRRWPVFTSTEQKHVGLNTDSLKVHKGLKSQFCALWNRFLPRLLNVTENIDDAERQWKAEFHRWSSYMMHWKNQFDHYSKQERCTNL

| SMILES | IC50 [1, 12] [µM] | IC50 [2, 13] [µM] | IC50 [3, 14] [µM] | Papp at 4 h, 25 µg/mL [4, 15] [×10⁻⁶ cm/s] | LD50 Based on MTT Assay, SY-SY5Y [5] | LD50 Based on MTT Assay, C6 [6] | LD50 Based on MTT Assay, NIH3T3 [7] | LD50 Based on MTT Assay, B16F10 [8] | IC50 [1] [µM] | IC50 [2] [µM] | IC50 [3] [µM] | Ki [9] [µM] | Inhibition type BACE1 [9, 16] | Ki [10] [µM] | Inhibition type AChE [10, 16] | Ki [11] [µM] | Inhibition type BChE [11, 16] | log Pe [4] | Papp at 4 h, 25 µg/mL ([4]; pH 7.4) [×10⁻⁶ cm/s] |
| --- | --- | --- | --- | --- | --- | --- | --- | --- | --- | --- | --- | --- | --- | --- | --- | --- | --- | --- | --- |
| Cc1cc2c(c(C)c1CCO[C@@H]1O[C@H](CO)[C@@H](O)[C@H](O)[C@H]1O)C(=O)[C@@H](C)[C@H]2O [(2S,3R)-Pteroside C, (2S,3R)-pteroside C] | 28.9 ± 2.2 | 9.17 ± 0.82 | 13 ± 0.14 | 0.29 ± 0.34 | 711 ± 35 µM | >5,000 µM | >5,000 µM | >5,000 µM | – | – | – | – | – | – | – | – | – | – | – |
| Cc1cc2c(c(C)c1CCO)C(=O)[C@@H](C)[C@H]2O [(2S,3R)-Pterosin C, (2S,3R)-pterosin C] | – | – | – | – | 2,940 ± 260 µM | >5,000 µM | >5,000 µM | >5,000 µM | 23.1 ± 2.9 | 12.8 ± 0.79 | 44.3 ± 1 | 33.8 | Noncompetitive | 16.3 | Mixed-type | 29.9 | Noncompetitive | -5.65 | 2.34 ± 0.81 |
| Cc1cc2c(c(C)c1CCO[C@@H]1O[C@H](CO)[C@@H](O)[C@H](O)[C@H]1O)C(=O)C(C)(C)C2 [Pteroside Z, pteroside Z] | 53.3 ± 1.2 | 24.1 ± 1.1 | 5.31 ± 0.19 | 0.61 ± 0.17 | 1,430 ± 210 µM | 2,130 ± 62 µM | >5,000 µM | >5,000 µM | – | – | – | – | – | – | – | – | – | – | – |
| Cc1cc2c(c(C)c1CCO)C(=O)C(C)(C)C2 [Pterosin Z, pterosin Z] | 80 ± 5.9 | – | – | – | 495 ± 24 µM | 1,850 ± 65 µM | 553 ± 37 µM | 618 ± 71 µM | – | 46.5 ± 3.4 | 80.1 ± 6.8 | – | – | – | – | – | – | – | – |

From paper PMC6372667 (Experimental & Molecular Medicine, 2019)
